# Test results from PubChem BioAssay (NCI).
#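 Assay format: 96-well plates, 48-hour exposure. GI50 = concentration required for 50% inhibition of growth. TGI: total growth inhibition.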 Where a SMILES comes first, the peptide text is derived from it. [ ]: non-standard residue; d: D form. The star is where a group is joined. ξ: configuration not given here. dIva = CC[C@@](C)(N)C(=O)O; Aib = CC(C)(N)C(=O)O; ξP = O=C(O)C1CCCN1; βAla = NCCC(=O)O; X5 = OCN*
# Legend:
# Assay in all cases: growth of human tumour cells (NCI), 48 h
# NCI-H522 lung = system: NCI-H522 lung
# SNB-75 CNS = system: SNB-75 CNS
# HCT-15 colon = system: HCT-15 colon
# SW-620 colon = system: SW-620 colon
# NCI-H23 lung = system: NCI-H23 lung
# HCT-116 colon = system: HCT-116 colon
# HT29 colon = system: HT29 colon
# OVCAR-5 ovarian = system: OVCAR-5 ovarian
# HS 578T breast = system: HS 578T breast
# SN12C renal = system: SN12C renal
SMILES,GI50 (NCI-H522 lung) [µM],TGI (NCI-H522 lung) [µM],GI50 (SNB-75 CNS) [µM],TGI (SNB-75 CNS) [µM],GI50 (HCT-15 colon) [µM],TGI (HCT-15 colon) [µM],GI50 (SW-620 colon) [µM],TGI (SW-620 colon) [µM],GI50 (NCI-H23 lung) [µM],TGI (NCI-H23 lung) [µM],GI50 (HCT-116 colon) [µM],TGI (HCT-116 colon) [µM],GI50 (HT29 colon) [µM],TGI (HT29 colon) [µM],GI50 (OVCAR-5 ovarian) [µM],TGI (OVCAR-5 ovarian) [µM],GI50 (HS 578T breast) [µM],TGI (HS 578T breast) [µM],GI50 (SN12C renal) [µM],TGI (SN12C renal) [µM]
CN1C(=O)C(C)(C)Oc2c(-c3cn(C)c(=O)c4[nH]ccc34)cc(S(C)(=O)=O)cc21,0.383,5,0.155,1.49,2.58,39.2,2.15,19.2,1.71,18.7,1.13,12.2,0.339,> 100,1.06,> 100,0.425,6.71,2.68,> 100
CC(C)Cn1cnc2c(SCc3ccccn3)nc(N)nc21,–,> 100,–,> 100,–,> 100,–,> 100,–,> 100,–,> 100,–,> 100,–,> 100,–,> 100,–,> 100
CSc1nc(-c2cccc(NC(=O)CCl)c2)c(C#N)c(=O)n1C,1.12,3.21,1.19,2.47,1.27,2.88,1.51,3.44,1.46,3.01,0.621,4.07,1.68,3.9,1.83,3.38,2.33,7.45,3.05,18.1
C[C@H](c1ccc(Cl)cc1[N+](=O)[O-])N1C(=O)c2cc(I)ccc2NC(=O)[C@H]1c1ccc(Cl)cc1,8.94,> 100,> 100,> 100,> 100,> 100,> 100,> 100,> 100,> 100,5.78,> 100,> 100,> 100,> 100,> 100,6.5,> 100,> 100,> 100
COc1ccc(CNC(=O)c2c(C)n([O-])c3cc(F)c(F)cc3[n+]2=O)cc1,11.5,27,0.461,5.58,1.77,3.43,3.83,13.1,2.38,10.6,14.1,27.1,3.91,16,16,29.4,2.11,5.96,14.2,27.2
CNCC1CCn2c(c(C3=C(c4cn(C)c5ccccc45)C(=O)NC3=O)c3ccccc32)C1 (configuration not stated),3.09,6.49,0.972,4.66,5.04,16.5,2.04,5.6,2.99,8.03,1.82,5.56,2.79,8.18,3.07,20.9,2.9,8.7,2.87,9.28
CC[C@@](C)(NC(=O)[C@H](C)NC(=O)CCNC(=O)C(C)(C)NC(=O)[C@H](C)NC(=O)[C@@H]1CCCN1C(=O)[C@@](C)(CC)NC(=O)[C@H](Cc1ccccc1)NC(=O)C1CCCN1C(=O)C(C)(C)NC(=O)C1CCCN1C(=O)C(C)(C)NC(C)=O)C(=O)NCCC(=O)N[C@@H](CC(C)C)C(=O)NC(C)(C)C(=O)NCCC(=O)N[C@@H](CC(C)C)C(=O)NC(C)(C)C(=O)NC(C)(C)C(=O)N[C@@H](CC(C)C)C(=O)NCCC(=O)NCO (some centres not stated) (Ac-[Aib][ξP][Aib][ξP]F[dIva]PA[Aib][βAla]A[dIva][βAla]L[Aib][βAla]L[Aib][Aib]L[βAla]-X5),0.0868,0.304,0.0608,0.307,0.229,0.446,0.149,0.403,0.088,0.32,0.218,0.431,0.197,0.414,0.197,0.422,0.248,0.642,0.119,0.373
CC1CC2(C)CC(=O)C1C1C(=O)N(CCN3CCOCC3)C(=O)C12 (configuration not stated),> 100,> 100,> 100,> 100,> 100,> 100,> 100,> 100,> 100,> 100,> 100,> 100,> 100,> 100,> 100,> 100,> 100,> 100,> 100,> 100
COc1ccc(-c2cc3c(N)ncnc3o2)cc1,> 25,> 25,24.9,> 25,> 25,> 25,> 25,> 25,> 25,> 25,> 25,> 25,> 22.7,> 25,> 25,> 25,5.85,> 25,14.8,> 25
COc1ccc(OC)c(/C=C/C(=O)c2ccc3cc(OC)ccc3c2)c1,–,> 14,1.78,4.53,–,> 50,–,> 50,–,> 14.3,> 15,> 50,–,–,> 11.6,> 50,> 33.3,> 50,–,> 13.1
COc1ccc2c(c1)O/C(=C\c1ccc([N+](=O)[O-])s1)C2=O,0.241,0.738,2.36,39.2,0.259,0.825,–,–,1.33,5.92,–,–,–,–,–,–,2.61,> 25.2,2.28,> 100
COn1cc(C(=O)N=C(SC)SC)c2ccccc21,13.1,42,68.7,> 100,22.4,62.5,34.8,> 100,27.2,60.3,–,–,42.1,> 100,26.2,73.7,16.7,54.3,22.4,74.3
O=C(Nc1ccc(N2CCNCC2)cn1)c1[nH]ncc1Nc1ncnc2sc3c(c12)CCC3,1.92,4.82,1.6,4.04,–,–,0.476,2.05,2.21,6.32,0.542,2.18,–,–,–,–,3.38,14.6,2,4.59
